Source: paper PMC5261566, “The AMPK Activator A769662 Blocks Voltage-Gated Sodium Channels: Discovery of a Novel Pharmacophore with Potential Utility for Analgesic Development” (PLoS ONE, 2017)

Target: T1, Nav1.7 (hNav1.7) (Homo sapiens, UniProt Q15858, F1748A/Y1755A)
T1 construct: gene SCN9A; F1737A/Y1744A mutant hNav1.7 transiently expressed in HEK293 cells
Assay: whole-cell patch clamp, % reduction of peak current at […]
Format: cell-based
Conditions: read-out: % block at 200 μM

T1 sequence (Q15858 whole entry F1748A/Y1755A): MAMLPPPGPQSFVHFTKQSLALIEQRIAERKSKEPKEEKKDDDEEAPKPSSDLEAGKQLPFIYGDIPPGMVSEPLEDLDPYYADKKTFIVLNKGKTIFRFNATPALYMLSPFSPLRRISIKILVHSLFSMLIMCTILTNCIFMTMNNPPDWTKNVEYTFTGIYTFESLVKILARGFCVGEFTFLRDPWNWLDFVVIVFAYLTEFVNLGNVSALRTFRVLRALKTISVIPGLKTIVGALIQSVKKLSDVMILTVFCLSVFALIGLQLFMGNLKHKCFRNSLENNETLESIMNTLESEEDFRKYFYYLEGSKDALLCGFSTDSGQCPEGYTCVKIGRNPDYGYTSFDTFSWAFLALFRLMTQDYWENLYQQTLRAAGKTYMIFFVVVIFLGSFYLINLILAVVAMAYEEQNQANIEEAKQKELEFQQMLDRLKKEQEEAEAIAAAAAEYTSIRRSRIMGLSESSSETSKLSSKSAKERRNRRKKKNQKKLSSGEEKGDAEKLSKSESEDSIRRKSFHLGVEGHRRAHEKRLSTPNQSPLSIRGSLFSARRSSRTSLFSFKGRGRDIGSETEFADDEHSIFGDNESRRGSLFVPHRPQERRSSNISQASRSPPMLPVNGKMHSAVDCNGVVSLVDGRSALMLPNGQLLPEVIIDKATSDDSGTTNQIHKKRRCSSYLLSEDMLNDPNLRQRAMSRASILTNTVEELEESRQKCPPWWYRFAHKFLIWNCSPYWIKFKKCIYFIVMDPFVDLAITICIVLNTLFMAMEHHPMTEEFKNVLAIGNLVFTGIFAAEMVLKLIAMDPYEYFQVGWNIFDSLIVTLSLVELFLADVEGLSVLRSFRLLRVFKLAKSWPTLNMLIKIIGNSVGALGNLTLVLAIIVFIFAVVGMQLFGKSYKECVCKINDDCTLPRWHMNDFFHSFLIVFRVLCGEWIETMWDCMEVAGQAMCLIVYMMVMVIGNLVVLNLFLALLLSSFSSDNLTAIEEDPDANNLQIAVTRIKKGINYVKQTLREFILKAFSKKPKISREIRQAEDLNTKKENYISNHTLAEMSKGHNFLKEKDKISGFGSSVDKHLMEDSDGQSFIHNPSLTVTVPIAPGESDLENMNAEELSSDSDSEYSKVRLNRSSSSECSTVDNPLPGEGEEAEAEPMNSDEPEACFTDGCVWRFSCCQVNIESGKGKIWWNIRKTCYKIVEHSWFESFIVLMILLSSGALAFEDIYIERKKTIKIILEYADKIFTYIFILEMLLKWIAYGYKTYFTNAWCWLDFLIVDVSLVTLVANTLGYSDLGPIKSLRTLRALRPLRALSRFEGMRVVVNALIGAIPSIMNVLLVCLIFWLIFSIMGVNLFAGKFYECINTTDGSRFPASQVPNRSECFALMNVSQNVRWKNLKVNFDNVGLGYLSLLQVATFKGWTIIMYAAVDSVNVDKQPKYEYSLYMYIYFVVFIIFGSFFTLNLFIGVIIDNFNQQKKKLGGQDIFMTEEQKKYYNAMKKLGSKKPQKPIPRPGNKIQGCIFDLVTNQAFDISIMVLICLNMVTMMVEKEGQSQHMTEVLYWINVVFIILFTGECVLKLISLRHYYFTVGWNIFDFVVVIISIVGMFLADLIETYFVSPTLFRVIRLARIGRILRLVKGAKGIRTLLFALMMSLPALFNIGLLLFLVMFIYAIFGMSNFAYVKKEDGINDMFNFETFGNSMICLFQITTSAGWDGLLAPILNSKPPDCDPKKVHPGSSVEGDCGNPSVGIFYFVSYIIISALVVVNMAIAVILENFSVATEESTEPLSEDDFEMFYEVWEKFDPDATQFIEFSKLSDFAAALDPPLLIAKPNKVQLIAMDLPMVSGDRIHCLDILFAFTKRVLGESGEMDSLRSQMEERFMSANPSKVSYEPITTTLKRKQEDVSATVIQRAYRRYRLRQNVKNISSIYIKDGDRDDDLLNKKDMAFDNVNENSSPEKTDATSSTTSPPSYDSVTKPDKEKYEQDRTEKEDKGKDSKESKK

With `N#Cc1c(O)c2c(-c3ccc(-c4ccccc4O)cc3)csc2[nH]c1=O` [A769662] the inhibition at 200 µM was 38%.
